Measurements taken from paper PMC11857211, “Bioprospecting Bioactive Peptides in Halobatrachus didactylus Body Mucus: From In Silico Insights to Essential In Vitro Validation” (Marine Drugs, 2025).
Marks after values point to notes of the source that are not given here.

Assays:
[1] = tested on: E. coli biofilm; assay: Antibiofilm activity (crystal violet); assay type: cell-based, Escherichia coli; details: 24 h incubation, HdKTLR 262, HdKNL 262, HdPPP 130, HdVLPN 204, HdLPN 227 µg/mL, OD 595 nm
Protocol: (§1) The antibiofilm activity was determined according to the following method, with some modifications. Taking the microplate from 24 h inhibition growth curves, the contents of the plate were discarded, and each well was carefully washed three times with distilled water to remove non-adherent cells. The adhered cells were fixed with 150 µL of methanol for 10 min. Then, the methanol was discarded, the plates were left to dry, and then, the fixed biofilm was stained with […] of crystal violet (CV) for 10 min. Excess stain was rinsed out by placing the plate under slow-running tap water. Once the plates were air-dried, the dye attached to the adherent cells was resolubilized by adding 150 µL of 33% (v/v) glacial acetic acid and agitated for 15 min. The optical density of the solution obtained was measured at 595 nm using a multidetection plate reader (Synergy H1, Winooski, VT, USA). All tests were carried out in duplicate, with a positive control using an inoculated culture in MH broth and a negative control using MH broth only. The results are presented as the percentage of biofilm formation, calculated according to the following formula, where the OD of the sample is the measured OD of the inoculated medium mixed with the peptides, and the OD of the positive control is the OD measured for the positive control.% Biofilm formation = (ODsample/ODpositive control) × 100(1)

[2] = ORAC assay; details: fluorescence monitored 80 min, means (n ≥ 3) ± SD, nd: not detected
Protocol: The ORAC assay followed the protocol outlined by Coscueta et al.. […] Fluorescence was monitored for 80 min at 1 min intervals. Each sample, standard, blank, or control, analysis was duplicated. The final ORAC values were expressed as µmol TE/µmol of peptide for the peptides and µmol TE /mg of protein for the digestion retentate and permeate contents.

[3] = cited from earlier work
From the text: Table 4 Summary of peptide solubility and concentration values. | column: Solubility || A high-performance size exclusion chromatography (HPSEC) analysis was employed to validate the molecular weight of the selected peptides, HdKTLR, HdKNL, HdVLPN, and HdLPN, synthesized by GenScript Biotech (Rijswijk, The Netherlands), following the preparation instructions provided in the technical datasheet. […] At higher concentrations, viscosity may increase due to molecular interactions between DMSO, buffer ions, and water. In iso ...

[4] = tested on: Salmonella enterica serovar Enteritidis ATCC 13076; assay: Growth inhibition curves; assay type: cell-based; details: HdKTLR 262, HdKNL 262, HdPPP 130 (5% DMSO), HdVLPN 204, HdLPN 227 µg/mL; MH broth, OD 600 nm hourly, 24 h, 37 °C
Protocol: (§2) The antimicrobial activity of the mucus samples was evaluated following the method by against the following pathogenic bacteria: Gram-negative Escherichia coli ATCC 25922, Salmonella enterica serovar Enteritidis ATCC 13076, and Pseudomonas aeruginosa ATCC 27853 and Gram-positive Staphylococcus aureus ATCC 6538. The mucus samples were combined with a 1/10 ratio of inoculum containing 1% (v/v) of bacteria cultured for 24 h in MH broth. For the positive control, deionized water was used instead of mucus samples with a 1% inoculum, while deionized water with MH served as the negative control. A control using chloramphenicol was made at a concentration of 16 µg/mL for E. coli, S. enterica, and P. aeruginosa and 100 µg/mL for S. aureus. The mixture was then transferred to a 96-well microplate (Sarstedt, Germany), and the optical density (OD) at 600 nm was measured every hour for a 24 h period at 37 °C using a microplate reader (Multiskan GO, Thermo Scientific, Finland). An increase in OD indicated bacterial growth.

[5] = tested on: Pseudomonas aeruginosa ATCC 27853; assay: Growth inhibition curves; assay type: cell-based; details: HdKTLR 262, HdKNL 262, HdPPP 130 (5% DMSO), HdVLPN 204, HdLPN 227 µg/mL; MH broth, OD 600 nm hourly, 24 h, 37 °C
Protocol: as §2

[6] = tested on: Escherichia coli ATCC 25922; assay: Growth inhibition curves; assay type: cell-based; details: HdKTLR 262, HdKNL 262, HdPPP 130 (5% DMSO), HdVLPN 204, HdLPN 227 µg/mL; MH broth, OD 600 nm hourly, 24 h, 37 °C
Protocol: as §2

[7] = tested on: Staphylococcus aureus ATCC 6538; assay: Growth inhibition curves; assay type: cell-based; details: HdKTLR 262, HdKNL 262, HdPPP 130 (5% DMSO), HdVLPN 204, HdLPN 227 µg/mL; MH broth, OD 600 nm hourly, 24 h, 37 °C
Protocol: as §2

[8] = tested on: Bifidobacterium species; assay: Probiotic growth curves; assay type: cell-based; details: B. longum BG3, B. animalis Bo, BB-12, BLC, B. breve; HdKTLR 262, HdKNL 262, HdVLPN 204, HdLPN 227 µg/mL; MRS broth, 24 h, 37 °C, OD 650 nm
Protocol: (§3) The effect of the peptides on probiotics was evaluated using the following probiotic Lactobacillus and Bifidobacterium species: L. acidophilus Ki (LAS), L. acidophilus La5, L. casei L26, L. plantarum 299V, L. rhamnosus RII, B. longum BG3 B. animalis spp. lactis BB12, B. animalis BLC, and B. animalis Bo. All the assays were performed using MRS broth supplemented with 0.5 g/L of L-cysteine. The peptides were combined with a 1/10 ratio of inoculum, containing 2% (v/v) of the probiotic and cultured for […] in MRS broth. For the positive control, deionized water was used instead of the peptides, with a 2% inoculum, while deionized water with MRS served as the negative control. Peptide wells with Bifidobacterium were sealed with paraffin to assure anaerobiosis conditions. The bacterial growth was monitored at 650 nm for 24 h at 37 °C in a microplate reader (Multiskan GO, Thermo Scientific, Finland), and the optical density (OD) was measured hourly. Growth curves were created by transforming the absorbance values in natural logarithms ln (Abs).

[9] = tested on: Lactobacillus species; assay: Probiotic growth curves; assay type: cell-based; details: L. acidophilus Ki, La5, L. plantarum 299V, L. casei, L. rhamnosus RII; HdKTLR 262, HdKNL 262, HdVLPN 204, HdLPN 227 µg/mL; MRS broth, 24 h, 37 °C, OD 650 nm
Protocol: as §3

[10] = tested on: S. aureus biofilm; assay: Antibiofilm activity (crystal violet); assay type: cell-based, Staphylococcus aureus; details: 24 h incubation, HdKTLR 262, HdKNL 262, HdPPP 130, HdVLPN 204, HdLPN 227 µg/mL, OD 595 nm
Protocol: as §1

[11] = tested on: P. aeruginosa biofilm; assay: Antibiofilm activity (crystal violet); assay type: cell-based, Pseudomonas aeruginosa; details: 24 h incubation, HdKTLR 262, HdKNL 262, HdPPP 130, HdVLPN 204, HdLPN 227 µg/mL, OD 595 nm
Protocol: as §1

[12] = tested on: S. enterica biofilm; assay: Antibiofilm activity (crystal violet); assay type: cell-based, Salmonella enterica; details: 24 h incubation, HdKTLR 262, HdKNL 262, HdPPP 130, HdVLPN 204, HdLPN 227 µg/mL, OD 595 nm
Protocol: as §1

Sequence | Biofilm formation versus control [1] | ORAC ([2]; SD) | Solubility (solvent) [3] | Antimicrobial activity (growth inhibition curve) [4] | Antimicrobial activity (growth inhibition curve) [5] | Antimicrobial activity (growth inhibition curve) [6] | Antimicrobial activity (growth inhibition curve) [7] | Effect on probiotic growth [8] | Effect on probiotic growth [9] | Biofilm formation versus control [10] | Biofilm formation versus control [11] | Biofilm formation versus control [12] | ORAC [2]
DPPNPKNL [HdKNL] | no significant differences | 0.048 ± 0.002 ^a µmol TE/µmol Peptide | H2O | did not demonstrate antimicrobial potential | did not demonstrate antimicrobial potential | did not demonstrate antimicrobial potential | did not demonstrate antimicrobial potential | did not inhibit the growth | did not inhibit the growth | no significant differences | substantially reduced biofilm production | no significant differences | –
EDNSELGQETPTLR [HdKTLR] | no significant differences | – | H2O | did not demonstrate antimicrobial potential | did not demonstrate antimicrobial potential | did not demonstrate antimicrobial potential | did not demonstrate antimicrobial potential | did not inhibit the growth | did not inhibit the growth | no significant differences | substantially reduced biofilm production | no significant differences | –
PFPGPLPN [HdLPN] | no significant differences | 0.195 ± 0.030 ^b,c µmol TE/µmol Peptide | H2O | did not demonstrate antimicrobial potential | did not demonstrate antimicrobial potential | did not demonstrate antimicrobial potential | did not demonstrate antimicrobial potential | did not inhibit the growth | did not inhibit the growth | no significant differences | substantially reduced biofilm production | no significant differences | 0.195 µmol TE/µmol Peptide
VYPFPGPLPN [HdVLPN] | no significant differences | 1.560 ± 0.110 ^c µmol TE/µmol Peptide | H2O | did not demonstrate antimicrobial potential | did not demonstrate antimicrobial potential | did not demonstrate antimicrobial potential | did not demonstrate antimicrobial potential | did not inhibit the growth | did not inhibit the growth | no significant differences | substantially reduced biofilm production | no significant differences | 1.560 µmol TE/µmol Peptide
